According to patent US20110135583A1, “Anionic Isosorbide Derivatives and Their Use (II)” (COGNIS IP […], priority 2009, published 2011):

Experiment: Foam quality and foam volume test of the isosorbide sulfosuccinate
Assay type: physicochemical
Conditions: 2.5% active substance in water, stirred to foam under standard conditions
Description: The foam quality and foam volume of this surfactant was tested as follows:
The isosorbide sulfosuccinate is dissolved in water at a rate of 2.5% active substance, and stirred to foam under standard conditions. According to a visual evaluation the surfactant of Example 1 has a foam quality of 4-5 on a scale of 1 (small bubbles, high cushion, stable foam) to 5 (large bubbles, unstable foam), and a foam volume equal to 32% of the foam for a standard surfactant (see FIG. 1).

Substance: Isosorbide Lauroylester Sulfosuccinate [Example 1]
- foam volume: 32 % of the foam for a standard surfactant
- foam quality (visual evaluation, scale of 1 (small bubbles, high cushion, stable foam) to 5 (large bubbles, unstable foam)): 4-5
